In US20150343016A1, “CHEMICAL ENTITIES AND THERAPEUTIC USES THEREOF” (The Regents of the University of Colorado, a body corporate, priority 2010, published 2015):
Where two headings read alike, the source gives them in different places.

Experiments:
Det562 cells = test: MTT assay, Bouvardin with ionizing radiation, Det562 (same-day treatment); type: cell-based, human
Description: “Combination Index” computation. Combination Indices were calculated using CalcuSyn software (Biosoft), which uses the method of Chou and Talalay. This method first computes drug-induced effect using the Hill Equation: where E is the measured effect; C is the drug concentration; Emax is the full range of drug effect, usually at or near 100%; IC50 is the drug concentration producing the median effect of 50%; and n is the curve shape parameter describing the steepness of the concentration-effect relationship. The Chou and Talalay method then linearizes the Hill Equation by logarithmic transformation as: where fu is the fraction of cells left unaffected after drug exposure, fa is the fraction of cells affected by the exposure, C is the drug concentration used, Cm is the concentration to achieve the median effect, and n is the curve shape parameter. Cm and n are equivalent to IC50 and n, respectively, in the Hill Equation. The values of n (obtained from the slope), nlog(Cm) (obtained from the absolute value of the intercept), and, therefore, Cm are obtained by plotting log(fu−1−1) versus log(C). These numbers are then used to compute the Combination Index (CI) according to the formula: CI=(D)1/(Dx)1+(D)2/(Dx)2 (26). (Dx)1 and (Dx)2 are the doses required to achieve a given effect level for each treatment, i.e. a specified value of Fraction Affected or Fa. (D)1 and (D)2 are the doses of each treatment in a given combination which gives the same Fa.
For FIG. 19 MTT assays were used to determine the effect of Bouvardin (concentrations in uM) in combination with ionizing radiation (in Gy). The data from same-day treatment of IR and Bouvardin are shown, for comparison with taxol-Bouvardin combination that were also applied on the same day. In general, CI values were lower for FaDu cells than for Det562 cells in two separate experiments (only one set is shown). On Det562 cells, CI values were about 1 for most combinations. CI value for Det562 cells at 0.001 uM/1Gy and at >0.06 uM are not included in the graph because the values are >10 and would have made smaller values harder to see. On FaDu cells, CI values were below 1 at concentrations of 0.03 or lower, were about 1 for 0.06 uM drug, and were over 1 at higher concentrations.
The growth inhibitory effects of Bouvardin with ionizing radiation (IR) were evaluated using a modified tetrazolium salt (MTT) assay. In the MTT assay, 1,000 to 2,000 viable cells were plated in 100 uL of growth medium in 96-well plates (Corning, Ithaca, N.Y.). Following an overnight incubation, drug was added in varying concentrations and the plates were irradiated on the same day (co-treatment) or 24 hr later (pre-treatment) and incubated for 6 to 7 days. The tetrazolium salt was added at a concentration of 0.4 mg/mL to each well following the 6- to 7-day treatment. The plates were incubated with the salt for 4 hours at 37° C. At 4 hours, the medium was aspirated off, leaving the dark blue formazan product at the bottom of the wells. The reduced MTT product was solubilized by adding […] of 0.2 N HCl in 75% isopropanol, 23% MilliQ water to each well. Thorough mixing was done using a Titertek multichannel pipetman. The absorbency of each well was measured using an automated plate reader (Molecular Devices, Sunnyvale, Calif.). All experiments were done in triplicate.

FaDu cells = test: CellTiter-Glo Luminescent Cell Viability Assay, Bouvardin with Taxol, FaDu; type: cell-based, human
Description: “Combination Index” computation. Combination Indices were calculated using CalcuSyn software (Biosoft), which uses the method of Chou and Talalay. This method first computes drug-induced effect using the Hill Equation: where E is the measured effect; C is the drug concentration; Emax is the full range of drug effect, usually at or near 100%; IC50 is the drug concentration producing the median effect of 50%; and n is the curve shape parameter describing the steepness of the concentration-effect relationship. The Chou and Talalay method then linearizes the Hill Equation by logarithmic transformation as: where fu is the fraction of cells left unaffected after drug exposure, fa is the fraction of cells affected by the exposure, C is the drug concentration used, Cm is the concentration to achieve the median effect, and n is the curve shape parameter. Cm and n are equivalent to IC50 and n, respectively, in the Hill Equation. The values of n (obtained from the slope), nlog(Cm) (obtained from the absolute value of the intercept), and, therefore, Cm are obtained by plotting log(fu−1−1) versus log(C). […]
The growth inhibitory effects of Bouvardin with Taxol were evaluated using CellTiter-Glo® Luminescent Cell Viability Assay (Promega G7570). […] Luminescence of each well was measured using an automated plate reader.

Q: With COc1ccc(C[C@H]2C(=O)N[C@H](C)C(=O)N(C)[C@@H]3C(=O)N(C)[C@@H](Cc4ccc(O)c(c4)Oc4ccc(cc4)[C@H]3O)C(=O)N[C@@H](C)C(=O)N[C@H](C)C(=O)N2C)cc1 (stereo in doubt) [Bouvardin, bouvardin] as the molecule, how does the “interaction of Bouvardin with IR” value (Det562 cells) read?
A: The value was “a wide range of effects, synergistic to antagonistic”.

Q: And the “CI value, Bouvardin with IR” value (Det562 cells; 0.001 uM/1Gy)?
A: Its value is greater than 10.

Q: And the “CI value, Bouvardin with IR” value (Det562 cells; at >0.06 uM)?
A: The value was greater than 10.

Q: And the “interaction of Bouvardin with IR” value (Det562 cells; listed as bouvardin)?
A: The value was “synergizes with ionizing radiation”.

Q: What about the “CI values, Bouvardin with IR” value (Det562 cells; most combinations) of the same molecule?
A: The value was “about 1”.

Q: And the “Bouvardin concentration up to which synergy was seen when combined with taxol” value (FaDu cells; Det562 and FaDu (FIG. 18))?
A: The value was “up to 0.3 μM”.

Q: And the “interaction of Bouvardin with Taxol” value (FaDu cells; FaDu)?
A: The value was “synergy with Taxol over a wide range of concentrations”.
